From patent publication US7476729B2, “Dbait and uses thereof” (Institut Curie, priority 2003, dated 2009) come the findings set out here.

For data set [1], the system named is U87 xenografted human glioblastoma. Description: Radiosensitization of xenografted human glioblastoma (U87) on nude mice. The conditions noted are these: for Number of mice where Tumor volume <4 cm^3 At the day 25 (6 mice per group): 1 nmole/intratumoral injection, total 30 Gy. In kind it is in vivo. The text has this:
Radio-sensitization was also observed in mice xenografted with human glioblastoma tumors. The glioblastoma is the highest grade of brain-tumor, and is characterized by its extraordinary aggressive progression with fast fatal outcome and resistance to radio- and chemotherapies. 2-3 millions of U87 cells derived from human glioblastoma was first injected subcutaneously in nude mouse. The grafted tumor was then took out and used to seed subsequently other nude mice by subcutaneous transplant of about 8 mm^3 glioblastoma tumor.
50% mice in the arm which received Dbait32H (SEQ ID NO: 1) (1 nmole) by intratumoral injection and irradiation (1×15 Gy/week or 3×5 Gy/week, followed by one week rest, then second treatment cycle, the total dose of ionizing radiation was 30 Gy) had tumor volume<4 cm^3 at the day 25 after the start of treatment, whereas 100% mice in the control arms (untreated or irradiated and injected with saline solution (PBS) had tumor volume well exceeded 4 cm^3, and were killed before the end of the assay according to current regulation on animal ethics before the end of the treatment.
Table 3.1: Assay of radiosensitization of xenografted human glioblastoma on nude mice by Dbait32H (SEQ ID NO: 1) (1 nmole/intratumoral injection) previously named DRIL32-PEG. Two protocols of irradiation (5 hours after intratumoral injection) were used: 1×15 Gy/week, or 3×5 Gy/week, followed by one week rest, the second treatment cycle. The total irradiation dose was 30 Gy. Control groups were the untreated or the groups received saline solution (PBS) injection.
For orientation: Xenograft models place foreign cells or tissue in a host animal.

The subject of data set [2] is γ-H2AX foci in GMA32 cells. Description: Immunodetection of γ-H2AX DSB foci in GMA32 cells. The following applies: GMA32, Dbait with lipofectamine, no irradiation. It counts as cell-based, Chinese hamster. How it is done:
Under the same conditions, the immunodetection of DSB foci of γ-H2AX phosphorylated on serine 139 by γ-H2AX labeling (bright dots or patches in nuclei) was performed in the untreated GMA32 cells, the cells transfected alone, or transfected with different Dbait molecules by lipofectamine. The counterstaining of cell membranes and nuclei were achieved by FITC-DiOC6 and DAPI. Similar effects of Dbait molecules were observed (FIG. 3.2). […] This provides visual evidence that these Dbait molecules can be used for trapping proteins involved in DSB repair via NHEJ pathway.
For immunodetection, the cells were grown on coverslip in 5 cm diameter Petri dishes 24 hours before the transfection with different Dbait molecules. One day after the transfection, FITC-DiOC6 (Molecular probes) was added in the medium 5 minutes at 37° C. (to counterstain the membranes). After 3 washing cycles, the cells were fixated with 4% PFA for 20 minutes.
After additional washing, γ-H2AX phosphorylated on serine 139 (γ-H2AX) was detected with. rabbit anti-γ-H2AX antibody (4411-PC, Trevigen) diluted 1/100 in 1×PBS, 1% BSA. Cells were washed three times with 1×PBS, 0.5%, TritonX-100, then incubated for 1 hour at room temperature with goat anti-rabbit antibodies Alexa 594 (Molecular Probes) diluted 1/100 in 1×PBS, 1% BSA. Cells were visualized by epifluorescence microscopy.

A further data set deals with γ-H2AX in Hep2 cells. The experiment in a line: Kinetics of persistence of DSB sites (γ-H2AX) by FACS in irradiated Hep2 cells. It counts as cell-based, human. The following applies: Hep2, 10 Gy, 0 min to 7 days. As to the method:
To investigate the effect of Dbait on ionizing radiation-induced g-H2AX foci formation and loss, Dbait32H-Cy3 (SEQ ID NO: 1) were transfected in the Hep2 cells by superfect (Qiagen). Transfected or untransfected Hep2 cells were irradiated at 10 Gy. Cells were fixed at different times (0 min, 30 min, 1 hour, 5 hours, 24 hours, 48 hours, 72 hours and 7 days). Primary mouse monoclonal antibody for g-H2AX (ser139) (Upstate, Tempcula, Calif., USA) was used in 1/500 dilution and incubated for 2 hours at 0° C., then washed by PBS buffer and incubated with Alexa 488-conjugated second antibody anti mouse IgG (Molecular Probe, Eugene, Oreg., USA) diluted in 1/200 for 1 hour in dark room.
In general terms: A flow cytometer gives signals particle by particle.

The subject of data set [3] is digestive tumors induced in K-Ras^V12G×Apc^1638N transgenic mice. Description: Chemosensitization of digestive tumors in K-Ras^V12G×Apc^1638N transgenic mice. It counts as in vivo. The text has this:
An endogenous mouse tumor model was chosen to assess the ability of Dbait molecules to sensitize anticancer chemotherapy. To this end, transgenic mice carrying K-Ras^V12G and Apc^1638N mutations were used. They were obtained by breeding two transgenic mice: one carries K-Ras^V12G mutant under the control of the mouse villin promoter(pVill/K-Ras^V12G) (Janssen et al., 2002), the other contains Apc^1638N mutation in one allele (Fodde et al., 1994). Transgenic mice with pVill/K-Ras^V12G×Apc^1638N mutations developed spontaneous tumors in the digestive tract at the age of about 5 months and died rapidly.
They were treated at the mean age of 12 weeks by a combination of chemotherapy (5FU+CPT11) and of Dbait32H (SEQ ID NO: 1) versus chemotherapy alone, according to the protocol shown in FIG. 5.1 panel A. The protocol includes three treatment cycles.
Each cycle consists of intraperitoneal injection of 0.6 mg 5FU and 0.6 mg CPT11, along with 0.1 mg Dbait32H (SEQ ID NO: 1) by oral administration, three times a week, followed by one week rest.
5FU (5 fluorouracile, Teva) was prepared in 0.9% NaCl solution at the concentration of 50 mg/ml. CPT11/Irinotecan (Campto, Aventis) was prepared in 0.9% NaCl solution at the concentration of 20 mg/ml. The health status and survival of the mice were monitored till the death. […]

Turning to “Dbait32H: hairpin double strand DNA with a stem of 32-bp, hexaethyleneglycol linker, phosphorothioate at the free blunt end (DNA ACGCACGGGTGTTGGGTCGTTTGTTCGGATCT; DNA, backbone not given here; hairpin, hexaethyleneglycol loop, 3-bp phosphorothioate at free blunt end)”, the “mice with tumor volume<4 cm^3 at the day 25” value in data set [1] (1 nmole intratumoral and irradiation (1×15 Gy/week or 3×5 Gy/week)) turned out to be 50%. Besides, the “Number of mice where Tumor volume <4 cm^3 At the day 25 (6 mice per group)” value in data set [1] (1 × 15 Gy/week) and in data set [1] (3 × 5 Gy/week) was 3/6 throughout. Besides, the “γ-H2AX DSB foci (cell response)” value in data set [2] is “effectively trigger similar cell response as if DNA damages were occurred in nuclei”. For the same substance, the “level of γ-H2AX over time (FACS)” value in the data set with γ-H2AX in Hep2 cells is “remained high and long”. In addition, the median survival in data set [3] (0.1 mg Dbait32H oral with 0.6 mg 5FU and 0.6 mg CPT11 i.p., three times a week, three cycles) is 226 days. Further, in data set [3] (5FU+CPT11 and Dbait32H (n=8) versus chemotherapy alone (n=7), week 18), the “reduction of tumor numbers (macroscopy and histology)” value is reported as more than 30%.
